Converted amounts (≈) assume the structure as drawn.
How the values were obtained:
[1] = Hygroscopicity test (DVS); type: physicochemical
Protocol: Dynamic vapor sorption (DVS) curves were acquired on a DVS Intrinsic in SMS (Surface Measurement Systems). The relative humidity at 25° C. was corrected with the deliquescence points of LiCl, Mg(NO3)2, and KCl.

[2] = Pharmacokinetic experiment in SD rats; type: in vivo; details: oral intragastric 10 mg/kg
Protocol: Six SPF-grade SD rats were prepared and weighed before administration. The dose of administration was calculated based on the weight. […] These administration solutions were orally and intragastrically administered at 10 mg/kg. The rats were weighed before administration, and the dose of administration was calculated based on the weight. 3 rats were used for each crystal form. The administration solutions were orally and intragastrically administered, followed by collection of samples via the jugular vein or other suitable means at the following time points: 0.25 […], and 24 h. About 0.20 mL of each sample was collected, and the plasma was separated out by centrifugation within 2 h. The compound I was detected, and plasma drug concentration-time curves were plotted. The pharmacokinetic parameters were calculated by utilizing WinNonlin according to the plasma concentration data at different time points.

[3] = Solubility Test I (stepwise solvent addition); type: physicochemical; details: thermodynamic from solid, room temperature
Protocol: About 2 mg of the crystal form A sample prepared according to Example 2 was weighed out and added to an HPLC vial, and the corresponding solvent was added stepwise (50/50/200/700 μL in sequence), followed by oscillation until the solid was completely dissolved. If the sample was still not completely dissolved after 1 mL of the solvent was added, no more solvent was added. The solubility range was calculated based on the mass of the solid sample, the volume of the solvent added, and the observed dissolution results, and the results are summarized in Table 3-1.

[4] = Solubility Test II (saturated solubility by HPLC); type: physicochemical; details: for solubility at 24 h: 37 °C, thermodynamic from solid
Protocol: Chromatographic column: Waters XTERRA RP18, 4.6 mm×150 mm, 3.5 μm or an equivalent chromatographic column. […] The gradient elution conditions are shown in Table 3-2. pH 4.5 acetate buffer: 0.59806 g of sodium acetate trihydrate was added to a 200-mL measuring flask and dissolved in an appropriate amount of water; 1.6 mL of glacial acetic acid was added; and the mixture was diluted to volume to obtain the pH 4.5 acetate buffer. pH 6.8 phosphate buffer: 1.38501 g of potassium dihydrogen phosphate and 0.18086 g of sodium hydroxide were added to the same 200-mL measuring flask; and the mixture was dissolved in water and diluted to volume to obtain the pH 6.8 phosphate buffer. 10.0 mL of each medium was precisely measured, and the media were placed into different 25-mL measuring flasks; an appropriate amount of each test crystal form was added; and the flasks were sealed and oscillated in an oscillator at 37° C. for 24 h to obtain supersaturated solutions. pH 6.8 phosphate buffer sample solution: the supersaturated solution prepared using the pH 6.8 phosphate buffer medium was filtered to obtain the pH 6.8 phosphate buffer sample solution. Water sample solution: the supersaturated solution prepared using the water medium was filtered to obtain the water sample solution. pH 4.5 acetate buffer sample solution: the supersaturated solution prepared using the pH 4.5 acetate buffer medium was filtered, and 1.0 mL of the filtrate was precisely measured and placed into a 10-mL measuring flask; the filtrate was diluted to volume with the pH 4.5 acetate buffer medium, and 1.0 mL of the solution was then precisely measured and placed into the 10-mL measuring flask; and the solution was diluted to volume with methanol to obtain the pH 4.5 acetate buffer sample solution. (ii) Preparation of crystal form A sample solution: pH 6.8 phosphate buffer sample solution: the supersaturated solution prepared using the pH 6.8 phosphate buffer medium was filtered to obtain the pH 6.8 phosphate buffer sample solution. Water sample solution: the supersaturated solution prepared using the water medium was filtered to obtain the water sample solution. pH 4.5 acetate buffer sample solution: the supersaturated solution prepared using the pH 4.5 acetate buffer medium was filtered, and 1.0 mL of the filtrate was precisely measured and placed into a 10-mL measuring flask; the filtrate was diluted to volume with the pH 4.5 acetate buffer medium, and 1.0 mL of the solution was then precisely measured and placed into a 25-mL measuring flask; and the solution was diluted to volume with methanol to obtain the pH 4.5 acetate buffer sample solution. Each medium sample solution was taken, 10 μL of each test sample solution was precisely measured and injected into a liquid chromatograph according to the chromatography conditions described above, and the chromatogram was recorded. The saturated solution degree of each medium was calculated according to the formula below. In the formula: WR=sample weight of control solution, mg; PR=purity factor of control; • AS=peak area of main peak in test solution: DS=dilution factor of test solution; • AR=peak area of main peak in control solution; DR=dilution factor of control solution;

[5] = Solid-state stability test (XRPD, HPLC purity); type: physicochemical
[6] = 25° C./60% RH/uncovered, 2 weeks
[7] = 25° C./60% RH/uncovered, 4 weeks
[8] = 25° C./60% RH/uncovered, 6 weeks
[9] = 40° C./75% RH/uncovered, 2 weeks
[10] = 40° C./75% RH/uncovered, 4 weeks
[11] = 40° C./75% RH/uncovered, 6 weeks

CCOc1cc(-c2ccc(N3CC4CC(C3)N4Cc3ccc(OC)nc3)nc2)c2c3cn[nH]c3nn2c1 (single isomer, unassigned) [Crystal form A]
hygroscopicity evaluation ([1]; DVS at 25° C., 0% RH-95% RH, according to Chinese Pharmacopoeia 2015 Edition): slightly hygroscopic
hygroscopic weight gain ([1]; DVS, 25° C./80% RH, listed as crystal form A): about 1.1%
crystal form after the DVS test (XRPD) ([1]; after DVS test): not changed
AUC(0-t) ([2]; SD, rat, plasma, po, 10 mg/kg, 1 mg/mL in 5% DMSO in normal saline, compound I in plasma, 0.25-24 h, read-out: AUC(0-t)): 19100 ng·h/mL
in vivo absorption ([2]; comparison of crystal forms): significantly superior to that of the crystal form B
solubility ([3]; organic solvent or mixture, solvent 1,4-Dioxane): 2000 to 6700 µg/mL (≈ 4.03 to 13.5 mM)
solubility ([3]; organic solvent or mixture, solvent 2-MeTHF): 2400 to 8000 µg/mL (≈ 4.83 to 16.1 mM)
solubility ([3]; organic solvent or mixture, solvent ACN): < 2200 µg/mL
solubility ([3]; organic solvent or mixture, solvent Acetone, undissolved sample completely dissolved at 50° C. ~1 h): < 1900 µg/mL
solubility ([3]; organic solvent or mixture, solvent Anisole, undissolved sample completely dissolved at 50° C. ~1 h): < 2200 µg/mL
solubility ([3]; organic solvent or mixture, solvent CHCl3): 20000 to 40000 µg/mL (≈ 40.3 to 80.6 mM)
solubility ([3]; organic solvent or mixture, solvent CPME, undissolved sample completely dissolved at 50° C. ~1 h): < 2000 µg/mL
solubility ([3]; organic solvent or mixture, solvent DCM): 7700 to 23000 µg/mL (≈ 15.5 to 46.3 mM)
solubility ([3]; organic solvent or mixture, solvent DMSO): 21000 to 42000 µg/mL (≈ 42.3 to 84.6 mM)
solubility ([3]; organic solvent or mixture, solvent EtOAc, undissolved sample completely dissolved at 50° C. ~1 h): < 2200 µg/mL
solubility ([3]; organic solvent or mixture, solvent EtOH, undissolved sample completely dissolved at 50° C. ~1 h): < 1900 µg/mL
solubility ([3]; organic solvent or mixture, solvent IPA, undissolved sample completely dissolved at 50° C. ~1 h): < 2000 µg/mL
solubility ([3]; organic solvent or mixture, solvent IPAC): < 2200 µg/mL
solubility ([3]; organic solvent or mixture, solvent MIBK): < 2200 µg/mL
solubility ([3]; organic solvent or mixture, solvent MTBE): < 2200 µg/mL
solubility ([3]; organic solvent or mixture, solvent MeOH, undissolved sample completely dissolved at 50° C. ~1 h): < 2100 µg/mL
solubility ([3]; organic solvent or mixture, solvent THE): 1900 to 6300 µg/mL (≈ 3.83 to 12.7 mM)
solubility ([3]; organic solvent or mixture, solvent Toluene): < 2000 µg/mL
solubility ([3]; organic solvent or mixture, solvent n-Heptane): < 2000 µg/mL
solubility ([3]; water, solvent H2O): < 2300 µg/mL
Saturated solubility ([4]; pH 4.5 acetate buffer, 37° C., 24 h, listed as crystal form A): 14545.08 µg/mL
solubility at 24 h ([4]; pH 6.8 phosphate buffer, pH 6.8, aqueous buffer): 0.04 µg/mL (≈ 8.06e-05 mM)
solubility at 24 h ([4]; water): 0.61 µg/mL (≈ 0.00123 mM)
Purity (area %) [5, 6]: 99.95 area %
Relative to initial purity (%) [5, 6]: 99.99%
Crystal form change ([5]; 25° C./60% RH/uncovered, 2 weeks, XRPD): No change
Purity (area %) [5, 7]: 99.94 area %
Relative to initial purity (%) [5, 7]: 99.98%
Crystal form change ([5]; 25° C./60% RH/uncovered, 4 weeks, XRPD): No change
Purity (area %) [5, 8]: 99.96 area %
Relative to initial purity (%) [5, 8]: 100.00%
Crystal form change ([5]; 25° C./60% RH/uncovered, 6 weeks, XRPD): No change
Purity (area %) [5, 9]: 99.96 area %
Relative to initial purity (%) [5, 9]: 100.00%
Crystal form change ([5]; 40° C./75% RH/uncovered, 2 weeks, XRPD): No change
Purity (area %) [5, 10]: 99.96 area %
Relative to initial purity (%) [5, 10]: 100.00%
Crystal form change ([5]; 40° C./75% RH/uncovered, 4 weeks, XRPD): No change
Purity (area %) [5, 11]: 99.95 area %
Relative to initial purity (%) [5, 11]: 99.99%
Crystal form change ([5]; 40° C./75% RH/uncovered, 6 weeks, XRPD): No change
Purity (area %) ([5]; 60° C./sealed, 24 h): 99.96 area %
Relative to initial purity (%) ([5]; 60° C./sealed, 24 h): 100.00%
Crystal form change ([5]; 60° C./sealed, 24 h, XRPD): No change
HPLC purity under the test conditions ([5]; all stability conditions (60° C. sealed 24 h; 25° C./60% RH and 40° C./75% RH uncovered 2, 4, 6 weeks)): not significantly reduced
crystal form under the test conditions ([5]; all stability conditions, XRPD): not changed
